Experimental data: patent US6372749B1, “Pyrazolo[1,5-a]pyrimidine derivatives” (Otsuka Pharmaceutical Factory, Inc., priority 1998, dated 2002)

What was measured:
[1] = system: S.D. rats; assay: Recovery of pain threshold after substance P injection (Randall-Sellitto method); type: in vivo; details: male S.D. rats, oral 5% gum arabic suspension 10 ml/kg, substance P 25 ng/0.1 ml s.c. in left hind paw
Protocol: Using 6-week-old male S.D. rats (7 rats in each group), the pain threshold of each rat's left hind paw plantar was measured using an Analgesy-Meter (product of Unicom) in accordance with the Randall-Sellitto method [Randall, L. O. and Sellitto, J. J., Arch. Int. Pharmacodyn., 111, 409 (1957)]. The value thus obtained was termed “pre-value”.
One hour after the measurement of the pre-value, a 5% gum arabic suspension containing the compound of the invention was orally administered to the rats of the test group in an amount of 10 ml/kg, whereas a 5% gum arabic suspension (not containing the compound of the invention) was orally administered to the rats of the control group in an amount of 10 ml/kg.
One hour later, a physiological saline solution containing substance P (25 ng/0.1 ml) was subcutaneously injected into the left hind paw plantar of each rat.
The pain threshold of each rat's left hind paw was measured in the same manner as above at predetermined time intervals from the substance P injection. The measured value was termed “post-value”.
The recovery (%) of the pain threshold was calculated from the post-values and the pre-values of the test group and the control group, by means of the following formula: [formula]

[2] = time of measurement 60 minutes later

Row | Structure (SMILES) | Recovery (%) of the pain threshold (the highest recovery %) ([1]; time of measurement 30 minutes later) | Recovery (%) of the pain threshold (the highest recovery %) [1, 2] | melting point
1 | CCCCc1cc(/C=C/c2ccc(Cl)cc2)n2nccc2n1 [Example 8, (E)-5-n-butyl-7-[2-(4-chlorophenyl)ethenyl]pyrazolo[1,5-a]pyrimidine] | 36.2% | – | –
2 | CCCCc1cc(/C(=C\c2cc(OC)c(OC)c(OC)c2)C(=O)O)n2nccc2n1 [Example 40, (E) 2-(5-n-butylpyrazolo[1,5-a]pyrimidin-7-yl)-3-(3,4,5-trimethoxyphenyl)acrylic Acid] | – | 47.2% | –
3 | CCCCc1cc(/C(=C\c2cc(OC)c(O)c(OC)c2)C(=O)O)n2nccc2n1 [Example 109, (E) 2-(5-n-butylpyrazolo[1,5-a]pyrimidin-7-yl)-3-(4-hydroxy-3,5-dimethoxyphenyl)acrylic acid] | – | 52.1% | > 152 °C (dec.)
4 | CCCCc1cc(/C=C/c2cc(OC)c(OC)c(OC)c2)n2nccc2n1 [Example 1, (E)-5-n-butyl-7-[2-(3,4,5-trimethoxyphenyl)ethenyl]pyrazolo[1,5-a]pyrimidine] | – | 47.8% | –
5 | CCCCc1cc(/C(=C/c2cc(OC)c(OC)c(OC)c2)SC)n2nccc2n1 [Example 12, (Z)-5-n-butyl-7-[1-methylthio-2-(3,4,5-trimethoxyphenyl)ethenyl]pyrazolo[1,5-a]pyrimidine] | – | 41.5% | –
